From US12509446B2, “FYN and VEGFR2 kinase inhibitors” (ROTTAPHARM BIOTECH S.R.L., priority 2019, dated 2025)
Values belong to the compound of their own block, whether it stands above or below them.

Legend:
[1] = target: VEGFR2 (Homo sapiens (Human), UniProt P35968); experiment: In vitro VEGFR2 kinase activity assay (Eurofins Cerep); type: biochemical; details: read-out: VEGFR2 KINASE INHIBITION IC50
Procedure: The VEGFR2 kinase inhibitory activity of representative examples of compounds of Formula (I) assays was evaluated in Eurofins Cerep (France). The concentration range of the inhibitors under investigation was from 10^−8 M up to 10^−5 M final concentration. Some compounds were re-tested in a concentration-range starting from 10^−9 M. The results are expressed as a percent of control activity (in the absence of test compound) and the IC50 values were determined by non-linear regression analysis of the inhibition/concentration curves generated with mean replicate values.

[2] = tested on: IL-6; experiment: Gene expression in rat articular chondrocytes under IL-1β stimulation, IL-6; type: cell-based; details: 6 h
Procedure: (§1) For gene expression analysis, 10 days after plating, the medium was changed and substituted with DMEM GlutaMAX I 0.4% to synchronize the cells. The cells were then co-treated in DMEM GlutaMAX I 0.4% with different concentrations of the test compounds and […] at a final concentration of 2 ng/ml for 6 h and 24 h. The test compound concentrations used have been chosen on the basis of the toxicity data.
(§2) At the end of the incubation, the supernatant was discarded, the cell were washed with cold PBS1X and scraped with 200 μl of RNA lysis buffer 1X (Nucleic Acid Purification Lysis Solution, Applied Biosystems).
(§3) Total RNA was purified using ABI Prism™ 6100 Nucleic Acid PrepStation (Applied Biosystems) following manufacturer's instructions.
(§4) Total RNA was retrotranscribed using the High-Capacity cDNA Archive Kit (Applied Biosystems-Thermo Fisher Scientific) following manufacturer's instructions.
(§5) The specific probes and primers for RealTime PCR were from Applied Biosystems (Thermo Fisher Scientific) as Assays-on-Demand™, while the probe and primers for the endogenous control 18S was a PDAR (Pre-Developed TaqMan® Assay Reagents—Applied Biosystems-Thermo Fisher Scientific).
(§6) The assays were designed to amplify target cDNA without amplifying genomic DNA.
(§7) Gene expression analysis for IL-1β, IL-6 and ADAMTS-5 were performed at 6 h incubation, while the gene expression analysis for MMP3, MMP13 and COX2 were performed at 24 h incubation.
(§8) For each compound the maximal concentration tested was dependent on the toxicity results obtained on primary rat chondrocytes.
(§9) The data analysis, with the normalisation on the amplified values for the 18S was done following the specific instruction of Applied Biosystems for the relative quantification of gene expression.

[3] = tested on: COX2; experiment: Gene expression in rat articular chondrocytes under IL-1β stimulation, COX2; type: cell-based; details: 24 h
[4] = tested on: MMP13; experiment: Gene expression in rat articular chondrocytes under IL-1β stimulation, MMP13; type: cell-based; details: for MMP13 gene expression, percentage of inhibitory effect at the highest non toxic concentration: 24 h
Procedure: as §1, §2, §3, §4, §5, §6, §7, §8, §9

[5] = target: Fyn (Homo sapiens (Human), UniProt P06241); experiment: Z′-LYTE in vitro Fyn kinase activity assay; type: biochemical; details: ATP 50 μM; read-out: FYN KINASE INHIBITION IC50
Procedure: The Fyn kinase inhibitory activity of representative examples of compounds of Formula (1) was evaluated by Z′-LYTE™ Kinase Assay Platform (Invitrogen). Compounds were evaluated towards active Fyn (full length active, molecular weight 87.1 kDa; Invitrogen). […] Samples representing the 0% inhibition (or total enzymatic activity) were in the presence of compound diluent (1% DMSO final in Reaction Buffer 50 mMHepes, 10 mM MgCl2, 1 mM EGTA, 0.01% Brij-35, pH 7.5). The kinase reaction was carried out in a total volume of 10 μl, for 60 minutes at 25° C. The 0% Phosphorylation (i.e. no ATP) and 100% Phosphorylation Assay Controls, included in each plate, allowed to calculate the percent phosphorylation achieved in the specific reaction well. Results are expressed as percentage of inhibition and the IC50 values were calculated by non-linear curve fitting using GraphPad™ Prism software (version 6 for Windows).

[6] = tested on: bovine nasal septum cartilage; experiment: Inhibition of cartilage degradation (GAG release) induced by IL-1α in a bovine in vitro model; type: cell-based
Procedure: Nasal septum cartilage was collected from an eight months-old male bovine in a local slaughterhouse.
Tissue was sprayed with ethanol 70% and immediately put in sterile PBS with Antibiotic-Antimycotic stabilized solution (PBS-AASS). It was cut in order to obtain small punches (diameter 2 mm, 1 mm-thick). washed with sterile PBS-AASS, the slices were transferred in a 96X well plate (one piece per well) in DMEM 10%+AASS. 48 h later the cartilage was stimulated in white DMEM+0.1% BSA+AASS with IL-1α […] in the absence or presence of the studied compounds.
The compounds concentration used in this analysis was chosen depending on the toxicity results obtained in rat primary chondrocytes at 48 h of incubation.
After 48 h stimulation, the culture medium was collected and stored at −80° C. The cartilage punches were digested with papain at 65° C. for 2 h in phosphate buffer (0.05M pH 6.5 with 2 mM N-acetil-L-cisteine and 2 mM EDTA).
The glycosaminoglycan (GAG) determination was done by a colorimetric assay with 1,9 dimethyl methylene blue (DMB).
Digested cartilage samples were diluted in PBS-BSA 1%. To 100 μl of diluted samples or standard we added 100 μl DMB 2X. After 5-20 min incubation the samples were read at 590 nm (Titertek Multiscan Plus).
The cartilage degradation induced by IL-1α was expressed as: GAG (medium)/total GAG (medium+cartilage)×100

[7] = tested on: IL-1β; experiment: Gene expression in rat articular chondrocytes under IL-1β stimulation, IL-1β; type: cell-based; details: 6 h
Procedure: as §1, §2, §3, §4, §5, §6, §7, §8, §9

[8] = tested on: NF-kB; experiment: Gene reporter (GR) assay, NF-kB activation after TNFα in JB6 Cl 41-5a (P+) cells; type: cell-based, murine; details: Mus musculus, JB6 Cl 41-5a, TNFα 2 ng/ml, non toxic concentrations; read-out: Gene reporter (GR) inhibition IC50
From the text: To determine if the compounds of the invention were active also in a cellular model, a gene reporter assay was established in a cell line (JB6 Cl 41-5a (P+)) know to activate Fyn kinase via an inflammatory stimuli (TNFα). GR assay measures the activation of the nuclear transcription factor NF-kB, situated down-stream the Fyn activation pathway. Products active in this analysis has to penetrate in the cell and inhibit the activation pathway of NF-kB.
The murine epithelial cell line JB6 Cl 41-5a (P+) (ATCC® Cat. #CRL-2010) was stably transfected with the pGL4.32[luc2P/NFkB-RE/Hygro] vector (Promega). Clonal selection was achieved by limiting with 80 μg/ml Hygromycin B. The clones were tested for their response to TNFα stimulus.
JB6(P+) NFkB-RE-luc2P transfected cells were used for the analysis of NF-kB activity modulation, after TNFα stimulation, by Fyn-inhibitors.
Cells were pre-treated with the different compounds for 1 h and then stimulated with 2 ng/ml TNFα for 4 h. Each tested condition was analyzed in quadruplicate.
The luciferase analysis was performed with ONE-Glo™+ToxLuciferase Reporter and Cell Viability Assay kit (Promega).

[9] = tested on: MMP3; experiment: Gene expression in rat articular chondrocytes under IL-1β stimulation, MMP3; type: cell-based; design: key to MMP3 gene expression, no effect: ne: no effect
Procedure: as §1, §2, §3, §4, §5, §6, §7, §8, §9

[10] = tested on: rat primary articular chondrocytes; experiment: Toxicity analysis (MTT) in rat primary chondrocytes; details: for First toxic concentration at 24 h: rat primary chondrocytes
[11] = tested on: ADAMTS-5; experiment: Gene expression in rat articular chondrocytes under IL-1β stimulation, ADAMTS-5; type: cell-based; details: for IC50: Rattus norvegicus, Chondrocyte, 6 h incubation
Procedure: as §1, §2, §3, §4, §5, §6, §7, §8, §9

[12] = Bos taurus, read-out: Bovine cartilage degradation induced by IL-1α, % inhibitory effect at max concentration
[13] = Rattus norvegicus, Chondrocyte, 24 h incubation

Chain of Fyn (P06241 whole entry): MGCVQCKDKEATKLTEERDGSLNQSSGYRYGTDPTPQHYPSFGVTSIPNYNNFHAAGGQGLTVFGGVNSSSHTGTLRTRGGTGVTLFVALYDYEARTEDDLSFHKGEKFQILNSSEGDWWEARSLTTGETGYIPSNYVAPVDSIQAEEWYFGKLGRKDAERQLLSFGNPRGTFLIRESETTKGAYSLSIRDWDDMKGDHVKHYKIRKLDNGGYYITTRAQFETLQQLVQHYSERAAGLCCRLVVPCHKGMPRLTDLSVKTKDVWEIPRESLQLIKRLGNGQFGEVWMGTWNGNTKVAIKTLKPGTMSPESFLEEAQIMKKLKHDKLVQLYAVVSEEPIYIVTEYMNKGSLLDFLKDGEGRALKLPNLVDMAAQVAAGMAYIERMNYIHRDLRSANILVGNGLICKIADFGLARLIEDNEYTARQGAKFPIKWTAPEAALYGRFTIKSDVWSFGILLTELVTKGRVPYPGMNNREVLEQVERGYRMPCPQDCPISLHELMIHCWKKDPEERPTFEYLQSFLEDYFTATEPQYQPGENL
Chain of VEGFR2 (P35968 20-1356): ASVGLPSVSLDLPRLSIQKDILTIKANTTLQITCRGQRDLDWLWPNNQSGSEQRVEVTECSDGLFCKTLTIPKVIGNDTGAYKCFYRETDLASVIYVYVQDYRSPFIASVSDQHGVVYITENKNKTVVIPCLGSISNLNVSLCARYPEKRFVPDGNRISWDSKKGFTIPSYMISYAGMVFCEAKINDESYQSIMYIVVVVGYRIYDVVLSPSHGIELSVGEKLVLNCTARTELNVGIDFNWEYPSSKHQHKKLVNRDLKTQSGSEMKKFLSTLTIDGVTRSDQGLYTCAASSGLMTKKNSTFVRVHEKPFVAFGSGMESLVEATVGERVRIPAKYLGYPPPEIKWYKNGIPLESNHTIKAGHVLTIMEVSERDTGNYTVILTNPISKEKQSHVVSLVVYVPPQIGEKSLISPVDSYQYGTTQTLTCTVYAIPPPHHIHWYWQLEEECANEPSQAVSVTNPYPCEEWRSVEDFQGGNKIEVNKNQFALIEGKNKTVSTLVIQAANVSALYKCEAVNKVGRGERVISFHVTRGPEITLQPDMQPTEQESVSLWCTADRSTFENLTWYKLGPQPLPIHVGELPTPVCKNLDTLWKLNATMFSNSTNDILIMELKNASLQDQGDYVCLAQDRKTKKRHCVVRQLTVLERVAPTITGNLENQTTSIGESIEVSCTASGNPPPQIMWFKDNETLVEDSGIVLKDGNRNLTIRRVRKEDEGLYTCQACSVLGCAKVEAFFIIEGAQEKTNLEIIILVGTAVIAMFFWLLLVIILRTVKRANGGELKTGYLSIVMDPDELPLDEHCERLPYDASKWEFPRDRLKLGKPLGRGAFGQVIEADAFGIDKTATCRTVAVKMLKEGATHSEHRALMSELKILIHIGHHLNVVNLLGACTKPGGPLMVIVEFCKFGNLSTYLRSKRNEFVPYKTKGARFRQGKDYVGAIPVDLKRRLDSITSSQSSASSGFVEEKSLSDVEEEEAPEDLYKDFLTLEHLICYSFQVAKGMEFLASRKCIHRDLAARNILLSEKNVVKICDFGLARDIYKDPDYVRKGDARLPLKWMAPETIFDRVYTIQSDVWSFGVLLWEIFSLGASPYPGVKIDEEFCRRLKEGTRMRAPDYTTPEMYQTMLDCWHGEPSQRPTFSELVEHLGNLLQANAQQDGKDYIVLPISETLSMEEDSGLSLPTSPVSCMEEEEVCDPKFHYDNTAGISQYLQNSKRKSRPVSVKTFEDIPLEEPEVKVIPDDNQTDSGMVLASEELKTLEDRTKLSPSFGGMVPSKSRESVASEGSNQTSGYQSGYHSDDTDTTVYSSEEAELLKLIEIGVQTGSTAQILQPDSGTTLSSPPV

IC50 [1]: < 10 nM | IC50 [5]: 6 nM
SMILES: Cc1ccc(NC(=O)c2ccnc(C(C)(C)O)c2)cc1CCc1cc(Nc2cnccn2)[nH]n1 [Compound 5, 2-(2-hydroxypropan-2-yl)-N-(4-methyl-3-(2-(5-(pyrazin-2-ylamino)-1H-pyrazol-3-yl)ethyl)phenyl)isonicotinamide]
IL-6 gene expression, percentage of inhibitory effect at the highest non toxic concentration ([2]; 10 μM): 10 μM 89% | COX2 gene expression, percentage of inhibitory effect at the highest non toxic concentration ([3]; 10 μM): 10 μM 43% | MMP13 gene expression, percentage of inhibitory effect at the highest non toxic concentration ([4]; 10 μM): 10 μM 32% | inhibition at 3 µM ([6]; Bos taurus, 3 μM, read-out: Bovine cartilage degradation induced by IL-1α, % inhibitory effect at max concentration): 79% | IL-1β gene expression, percentage of inhibitory effect at the highest non toxic concentration ([7]; 10 μM): 10 μM 84% | IC50 [8]: 3260 nM | MMP3 gene expression, no effect ([9]; 24 h): ne | First toxic concentration at 48 h in rat primary chondrocytes [10]: 10 µM | First toxic concentration at 24 h [10]: >10 µM | IC50 [11]: 5500 nM

IC50 [1]: < 10 nM | IC50 [5]: 18 nM
SMILES: Cc1nccnc1Nc1cc(CCc2cc(NC(=O)c3cccc(C(F)(F)F)c3)ccc2F)n[nH]1 [Compound 15, N-(4-fluoro-3-(2-(5-((3-methylpyrazin-2-yl)amino)-1H-pyrazol-3-yl)ethyl)phenyl)-3-(trifluoromethyl)benzamide]
IL-6 gene expression, percentage of inhibitory effect at the highest non toxic concentration ([2]; 3 μM): 3 μM 100% | COX2 gene expression, percentage of inhibitory effect at the highest non toxic concentration ([3]; 3 μM): 3 μM 97% | MMP13 gene expression, percentage of inhibitory effect at the highest non toxic concentration ([4]; 3 μM): 3 μM 99% | inhibition at 1 µM [6, 12]: 96% | Inhibitory effect on the GAG release ([6]; at max concentration): 95-100% | IL-1β gene expression, percentage of inhibitory effect at the highest non toxic concentration ([7]; 3 μM): 3 μM 98% | MMP3 gene expression, percentage of inhibitory effect at the highest non toxic concentration ([9]; 3 μM, 24 h): 3 μM 90% | First toxic concentration at 48 h in rat primary chondrocytes [10]: 3 µM | First toxic concentration at 24 h [10]: 10 µM | ADAMTS-5 gene expression, percentage of inhibitory effect at the highest non toxic concentration ([11]; 3 μM, 6 h): 3 μM 96%

IC50 [4, 13]: 240 nM | IC50 [5]: 143 nM | IC50 [9, 13]: 500 nM
SMILES: Cc1ccc(NC(=O)c2cccc(C(F)(F)F)c2)cc1CCc1cnc(Nc2cnccn2)s1 [Compound 49, N-(4-methyl-3-(2-(2-(pyrazin-2-ylamino)thiazol-5-yl)ethyl)phenyl)-3-(trifluoromethyl) benzamide]
IL-6 gene expression, percentage of inhibitory effect at the highest non toxic concentration ([2]; 1 μM): 1 μM 100% | COX2 gene expression, percentage of inhibitory effect at the highest non toxic concentration ([3]; 1 μM): 1 μM 93% | inhibition at 1 µM [6, 12]: 35% | IL-1β gene expression, percentage of inhibitory effect at the highest non toxic concentration ([7]; 1 μM): 1 μM 91% | IC50 [8]: 422 nM | First toxic concentration at 48 h in rat primary chondrocytes [10]: 3 µM | First toxic concentration at 24 h [10]: 3 µM | IC50 [11]: 200 nM
